Each structure is given as a SMILES string. Values after ≈ are worked out from the molar mass of the structure shown.

By solubility is commonly meant the dissolved amount per volume that the medium holds. A high value points to much dissolved substance. `Nc1nc(N)c(O)c(O)n1` showed a solubility of 20.1 mM (≈ 2850 µg/mL). Where the note is “25 °C”, `CCC(O)(COC(N)=O)c1ccccc1` (stereo unspecified) came in with a solubility of 119 mM (≈ 25000 µg/mL). Take `COc1cc([C@@H]2c3cc4c(c(O)c3C[C@H]3COC(=O)[C@@H]32)OCO4)cc(OC)c1OC`: the solubility (23 °C) is 0.0314 mM (≈ 13 µg/mL). In turn, `C#CCOC(=O)/C=C(C)/C=C/CC(C)CCCC(C)C` (stereo unspecified) gave a solubility of 0.0189 mM (≈ 5.22 µg/mL). Turning to `O=C(CCCN1CCC(O)(c2ccc(Cl)cc2)CC1)c1ccc(F)cc1`, under “25 °C”, the solubility was determined as 0.0372 mM (≈ 14 µg/mL). This counts as double-digit micromolar. On to `C=C1CCO[C@]2([C@H](O)[C@@](C)(O)CO)NC(=O)[C@@]1(O)NC2=O`, for which the solubility turned out to be 635 mM (≈ 192000 µg/mL). This counts as millimolar. The compound `O=C(C(=O)c1cc([N+](=O)[O-])ccc1O)c1cc([N+](=O)[O-])ccc1O` yielded a solubility (25 °C) of 0.301 mM (≈ 100 µg/mL).

Compound `Cn1ccc(=O)c2ccccc21` had a solubility of 104 mM (≈ 16600 µg/mL).

`Nc1ccc(S(=O)(=O)O)c2ccc(S(=O)(=O)O)cc12` gave a solubility of 22.8 mM (≈ 6900 µg/mL).

Turning to `COCCOc1c(OC)cc(Cc2cnc(N)nc2N)cc1OC`, under “30 °C”, the solubility stood at 7.93 mM (≈ 2650 µg/mL). This lies in the millimolar range. For the setting “25 °C”, `O=C1CCC(=O)N1Cl` registered a solubility of 107 mM (≈ 14300 µg/mL). In other words, the millimolar range. Turning to `CC(=O)c1ccc(O)c(O)c1O`, the solubility was 9.51 mM (≈ 1600 µg/mL). In turn, `CC(=O)N(C)N(C(=O)C(=O)N(C)C)c1ccccc1` gave a solubility (20 °C) of 292 mM (≈ 76900 µg/mL). Where the note is “25 °C”, `C=C(C)Cn1c(N)cc(=O)n(C)c1=O` registered a solubility of 102 mM (≈ 20000 µg/mL). `Nc1ccc(S(=O)(=O)O)c2cc(S(=O)(=O)O)ccc12` showed a solubility of 551 mM (≈ 167000 µg/mL).

Regarding `CCC(C)C(C)(COC(N)=O)COC(N)=O` (stereo unspecified), the solubility was 4.31 mM (≈ 1000 µg/mL). This solubility is about 130-fold lower than that of the compound before. Same read-out and setting: the same measure for `Cc1cc(NS(=O)(=O)c2ccc(N)cc2)sn1`: 83.9 mM (≈ 22600 µg/mL); for `COCc1ccc([N+](=O)[O-])o1`: 70 mM (≈ 11000 µg/mL). In the case of `NS(=O)(=O)c1cc2c(cc1C(F)(F)F)NC=NS2(=O)=O`, the solubility (25 °C) was 152 mM (≈ 50000 µg/mL). In turn, `CCSc1nnc(C(C)(C)C)c(=O)n1N` showed a solubility (20 °C) of 1.84 mM (≈ 420 µg/mL). `CC(=O)N/N=C/c1ccc([N+](=O)[O-])o1` had a solubility of 2.54 mM (≈ 500 µg/mL). The compound `N=C(NCCCCCCNC(=N)NC(=N)Nc1ccc(Cl)cc1)NC(=N)Nc1ccc(Cl)cc1` showed a solubility (20 °C) of 1.58 mM (≈ 800 µg/mL). As for `NC(=O)c1cccnc1`, for the setting “25 °C”, the solubility is 4090 mM (≈ 500000 µg/mL). In turn, `Cc1csc(NS(=O)(=O)c2ccc(N)cc2)n1` yielded a solubility of 7.43 mM (≈ 2000 µg/mL).

`Cc1cc(O)c(Cl)c(C)c1Cl` registered a solubility of 1.05 mM (≈ 200 µg/mL). This solubility is about 7.1-fold lower than that of the compound before. `NC(=O)c1cnccn1` showed a solubility (25 °C) of 122 mM (≈ 15000 µg/mL). On the same count and under the same terms, the same measure for `Cn1c(=O)c2c(ncn2CC(O)CO)n(C)c1=O` (stereo unspecified): 1310 mM (≈ 333000 µg/mL).

`COc1c2c(cc3oc(=O)ccc13)OC(C)(C)C=C2` showed a solubility of 0.155 mM (≈ 40 µg/mL). `O=c1[nH]c(=O)n([C@H]2C[C@H](O)[C@@H](CO)O2)cc1I`: the solubility (25 °C) was 5.65 mM (≈ 2000 µg/mL). Turning to `O=C1CN=C(c2ccccc2Cl)c2cc([N+](=O)[O-])ccc2N1`, under “25 °C”, the solubility worked out at 0.317 mM (≈ 100 µg/mL). As to `O=C(O)CCSCCC(=O)O`, under “26 °C”, the solubility turned out to be 209 mM (≈ 37200 µg/mL). This lies in the millimolar range. Take `Nc1nc(N)nc(-c2ccccc2)n1`: the solubility (22 °C) stood at 3.2 mM (≈ 600 µg/mL). For the setting “20 °C”, `Clc1ncnc2[nH]cnc12` yielded a solubility of 32.4 mM (≈ 5000 µg/mL). As for `CC(=O)C1CCOC1=O` (stereo unspecified), the solubility worked out at 1560 mM (≈ 200000 µg/mL). On to `CC(C)(C)OOC(C)(C)C`, for which the solubility turned out to be 0.684 mM (≈ 100 µg/mL). Compared with the last compound, the solubility is about 2300-fold lower. For the setting “28 °C”, `Nc1ccc(S(=O)(=O)c2cnc(N)s2)cc1` had a solubility of 1.57 mM (≈ 400 µg/mL). With `O=C1C(Br)=CC(=NCl)C=C1Br`, under “25 °C”, the solubility is 0.196 mM (≈ 58.8 µg/mL).

In turn, `CC1(C)[C@H]2CC[C@]1(C)C(=O)[C@H]2O` gave a solubility of 119 mM (≈ 20000 µg/mL).

Compound `Cc1cnc(NS(=O)(=O)c2ccc(N)cc2)nc1` came in with a solubility (pH 5.5) of 1.51 mM (≈ 400 µg/mL). This counts as millimolar. Turning to `CN(Cc1cc(Br)cc(Br)c1N)C1CCCCC1`, the solubility turned out to be 10.6 mM (≈ 4000 µg/mL). With `CO[C@H]1O[C@H](CNC(=O)N(CCCl)N=O)[C@@H](O)[C@H](O)[C@H]1O`, under “25 °C”, the solubility was found to be 27.5 mM (≈ 9000 µg/mL). That is a millimolar value.

On to `C/C=C\C(=O)OC1C[C@H]2O[C@@H]3C=C(C)C(=O)C[C@]3(C)[C@]1(C)C21CO1` (stereo partly specified), for which the solubility (25 °C) was determined as 1.2 mM (≈ 400 µg/mL).

In turn, `CCC(C)(CC)OC(N)=O` gave a solubility of 27.5 mM (≈ 4000 µg/mL). Compound `CNC(=S)NCO` displayed a solubility of 832 mM (≈ 100000 µg/mL).

`O=P([O-])([O-])O[C@@H]1[C@@H](O)[C@H](O)[C@@H](O)[C@H](O)[C@@H]1O` displayed a solubility of 1280 mM. In turn, `CC(=O)Oc1ccc(Br)cc1C(=O)O` came in with a solubility of 2.57 mM (≈ 667 µg/mL). Compared with the last compound, the solubility is about 500-fold lower.

The compound `NC1(C(=O)O)CCCC1` gave a solubility (25 °C) of 387 mM (≈ 50000 µg/mL). In turn, `C[C@@H]1C(=O)OC[C@H]2[C@@H]1CC[C@@H]2C` showed a solubility (25 °C) of 11.9 mM (≈ 2000 µg/mL).

Usually logP stands for a log measure of how a compound divides between an organic and an aqueous phase. Compound `COc1ccc(C(CN(C)C)C2(O)CCCCC2)cc1.Cl` (stereo unspecified) gave a logP of 0.43. In turn, `O=C(OC[C@H]1O[C@@H](Oc2ccccc2CO)[C@H](O)[C@@H](O)[C@@H]1O)c1ccccc1` had a solubility of 1.28 mM (≈ 500 µg/mL). The same measure, in the same setting: then `CCN(CC)C(=O)CC(C)C`, with 254 mM (≈ 40000 µg/mL). Turning to `CNC[C@H](O)[C@@H](O)[C@H](O)[C@H](O)CO`, the solubility (25 °C) turned out to be 3620 mM (≈ 707000 µg/mL). Still for that read-out and setting: the same measure for `Oc1c(Cl)cc(Cl)cc1Sc1cc(Cl)cc(Cl)c1O`: 0.0112 mM (≈ 4 µg/mL).

`COc1cc([C@@H]2c3cc4c(cc3[C@H](O)[C@H]3COC(=O)[C@@H]23)OCO4)cc(OC)c1OC` came in with a solubility (25 °C) of 0.241 mM (≈ 100 µg/mL). For the compound `O=C(O)/C=C\C(=O)Nc1ccccc1`, the solubility (27 °C) turned out to be 5.23 mM (≈ 1000 µg/mL). As for `CO[C@H]1[C@H](O)[C@H](O[C@H]2CC[C@@]3(C=O)[C@H](CC[C@@H]4[C@@H]3CC[C@]3(C)[C@@H](C5=CC(=O)OC5)CC[C@]43O)C2)O[C@@H](C)[C@@H]1O`, the solubility (25 °C) stood at 0.729 mM (≈ 400 µg/mL).

These data come from the OPERA property sets (Mansouri et al. 2018).
